According to the NIST ThermoML archive (doi:10.1016/j.jct.2018.11.004):
Several values for one entry are separate records, joined by “and”; a condition that tells them apart may be missing. Equal entries are not always repeated.

Settings: for molar entropy: 101.33 kPa, Small (less than 1 g) adiabatic calorimetry

CC(C)[C@@H]1CC[C@@H](C)C[C@H]1O [L-menthol]
Settings	Triple point temperature [K]	molar entropy [J/K/mol]	vapor or sublimation pressure
285 K, Crystal 1	–	253.6	–
286.97 K, Crystal 1, Closed cell (Static) method	–	–	0.001352 kPa and 0.001354 kPa
286.98 K, Crystal 1, Closed cell (Static) method	–	–	0.001355 kPa
288.15 K, Crystal 1, Closed cell (Static) method	–	–	0.001557 kPa and 0.001559 kPa
288.16 K, Crystal 1, Closed cell (Static) method	–	–	0.001558 kPa
290 K, Crystal 1	–	257.8	–
291.56 K, Crystal 1, Closed cell (Static) method	–	–	0.002353 kPa
291.57 K, Crystal 1, Closed cell (Static) method	–	–	0.002354 kPa
291.6 K, Crystal 1, Closed cell (Static) method	–	–	0.002364 kPa
293.14 K, Crystal 1, Closed cell (Static) method	–	–	0.002829 kPa and 0.002828 kPa and 0.002831 kPa
295 K, Crystal 1	–	261.9	–
296.23 K, Crystal 1, Closed cell (Static) method	–	–	0.004057 kPa and 0.004052 kPa
296.25 K, Crystal 1, Closed cell (Static) method	–	–	0.004063 kPa
298.15 K, Crystal 1	–	264.6	–
298.15 K, Crystal 1, Closed cell (Static) method	–	–	0.005047 kPa and 0.005039 kPa and 0.005033 kPa
300 K, Crystal 1	–	266.1	–
300.84 K, Crystal 1, Closed cell (Static) method	–	–	0.006809 kPa
300.85 K, Crystal 1, Closed cell (Static) method	–	–	0.006831 kPa
300.86 K, Crystal 1, Closed cell (Static) method	–	–	0.006832 kPa
303 K, Metastable liquid	–	–	0.01038 kPa and 0.01037 kPa
303.14 K, Crystal 1, Closed cell (Static) method	–	–	0.008771 kPa and 0.008757 kPa and 0.008761 kPa
305 K, Crystal 1	–	270.4	–
305.45 K, Crystal 1, Closed cell (Static) method	–	–	0.01128 kPa
308.15 K, Crystal 1, Closed cell (Static) method	–	–	0.01501 kPa and 0.015 kPa
308.15 K, Metastable liquid	–	–	0.01672 kPa and 0.0167 kPa
308.18 K, Metastable liquid	–	–	0.01676 kPa
308.19 K, Metastable liquid	–	–	0.01678 kPa
308.2 K, Metastable liquid	–	–	0.01678 kPa
310 K, Crystal 1	–	274.6	–
310.04 K, Crystal 1, Closed cell (Static) method	–	–	0.01833 kPa
310.07 K, Crystal 1, Closed cell (Static) method	–	–	0.0184 kPa and 0.01842 kPa
313.38 K, Metastable liquid	–	–	0.02657 kPa and 0.02658 kPa and 0.02656 kPa
314.67 K, Crystal 1, Closed cell (Static) method	–	–	0.02949 kPa and 0.02946 kPa
315 K, Crystal 1	–	278.9	–
315.6 K, Crystal 1	–	279.4	–
315.6 K, Liquid	–	322.1	–
318.43 K, Liquid	–	–	0.0408 kPa
318.46 K, Liquid	–	–	0.04088 kPa
318.47 K, Liquid	–	–	0.04094 kPa
320 K, Liquid	–	327.3	–
323.48 K, Liquid	–	–	0.06146 kPa
323.5 K, Liquid	–	–	0.06158 kPa
323.51 K, Liquid	–	–	0.06164 kPa
325 K, Liquid	–	333.3	–
328.56 K, Liquid	–	–	0.09137 kPa and 0.09138 kPa
330 K, Liquid	–	339.4	–
332.75 K, Liquid	–	–	0.1252 kPa
335 K, Liquid	–	345.4	–
337.81 K, Liquid	–	–	0.1804 kPa
337.82 K, Liquid	–	–	0.1805 kPa
340 K, Liquid	–	351.5	–
342.89 K, Liquid	–	–	0.2562 kPa and 0.2563 kPa
345 K, Liquid	–	357.5	–
347.88 K, Liquid	–	–	0.3573 kPa
350 K, Liquid	–	363.5	–
352.88 K, Liquid	–	–	0.4914 kPa
352.89 K, Liquid	–	–	0.4914 kPa
355 K, Liquid	–	369.6	–
357.86 K, Liquid	–	–	0.6662 kPa
357.87 K, Liquid	–	–	0.6664 kPa
360 K, Liquid	–	375.6	–
362.82 K, Liquid	–	–	0.8914 kPa
362.83 K, Liquid	–	–	0.8915 kPa
365 K, Liquid	–	381.5	–
370 K, Liquid	–	387.5	–
Metastable crystal, DSC	310	–	–

Settings	Triple point temperature [K]
Crystal 1, Adiabatic calorimetry	315.6
Crystal 1, DSC	315.4
